Measurements from ChEMBL document CHEMBL3885861, “Open TG-GATES”.

Species: Rattus norvegicus
Assay: Open TG-GATES - Regimen: Single
Assay type: toxicity, organism-based, Sprague-Dawley
Parameters: regimen Single, gender Male, age 6 weeks
Conditions: in vivo, ip, 120 mg/kg, route intraperitoneal injection, dose level Middle; for APTT / Bas / Eos / Fbg / Hb / Ht / Lym / MCH / MCHC / MCV / Mono / Neu / PT / Plat / RBC / Ret / WBC: tissue Blood; for KIDNEY_L / KIDNEY_R / KIDNEY_TOTAL: tissue Kidney; for LIVER: tissue Liver; for A/G / ALP / ALT / AST / BUN / CRE / Ca / Cl / DBIL / GLC / IP / K / LDH / Na / PL / RALB / TBIL / TC / TG / TP / gamma-GTP: tissue Plasma

CC(C)=CC(=O)C=C(C)C [PHORONE]
TERMINAL_BW (3 h): 223.2 g
APTT (3 h): 16.6 s
Bas (3 h): 0%
Eos (3 h): 0.8%
Fbg (3 h): 219.8 mg/dL
Hb (3 h): 13.8 g/dL
Ht (3 h): 41%
Lym (3 h): 74.4%
MCH (3 h): 21.7 pg
MCHC (3 h): 33.5%
MCV (3 h): 64.6 fL
Mono (3 h): 8.4%
Neu (3 h): 16.2%
PT (3 h): 12.2 s
Plat (3 h): 124.2 x10_4/uL
RBC (3 h): 635.4 x10_4/ul
Ret (3 h): 8.8%
WBC (3 h): 65.2 x10_2/uL
KIDNEY_L (3 h): 1 g
KIDNEY_R (3 h): 1 g
KIDNEY_TOTAL (3 h): 2 g
LIVER (3 h): 10.2 g
A/G (3 h): 2.2
ALP (3 h): 897.8 IU/L
ALT (3 h): 34.6 IU/L
AST (3 h): 76.2 IU/L
BUN (3 h): 15.2 mg/dL
CRE (3 h): 0.6 mg/dL
Ca (3 h): 11.2 mg/dL
Cl (3 h): 103 meq/L
DBIL (3 h): 0.038 mg/dL
GLC (3 h): 213.4 mg/dL
IP (3 h): 10.1 mg/dL
K (3 h): 5.1 meq/L
LDH (3 h): 79.8 IU/L
Na (3 h): 137.2 meq/L
PL (3 h): 132.6 mg/dL
RALB (3 h): 3.6 g/dL
TBIL (3 h): 0.6 mg/dL
TC (3 h): 79 mg/dL
TG (3 h): 50.8 mg/dL
TP (3 h): 5.3 g/dL
gamma-GTP (3 h): 1.2 IU/L
TERMINAL_BW (6 h): 221.7 g
APTT (6 h): 17.1 s
Bas (6 h): 0%
Eos (6 h): 1%
Fbg (6 h): 220.6 mg/dL
Hb (6 h): 13.7 g/dL
Ht (6 h): 41.3%
Lym (6 h): 75.6%
MCH (6 h): 21.7 pg
MCHC (6 h): 33.1%
MCV (6 h): 65.4 fL
Mono (6 h): 4.4%
Neu (6 h): 19.2%
PT (6 h): 12.2 s
Plat (6 h): 114 x10_4/uL
RBC (6 h): 633.2 x10_4/ul
Ret (6 h): 8.5%
WBC (6 h): 102.3 x10_2/uL
KIDNEY_L (6 h): 1 g
KIDNEY_R (6 h): 1 g
KIDNEY_TOTAL (6 h): 2 g
LIVER (6 h): 9.9 g
A/G (6 h): 1.9
ALP (6 h): 687.6 IU/L
ALT (6 h): 34.4 IU/L
AST (6 h): 71 IU/L
BUN (6 h): 15 mg/dL
CRE (6 h): 0.4 mg/dL
Ca (6 h): 10.7 mg/dL
Cl (6 h): 104.2 meq/L
DBIL (6 h): 0.032 mg/dL
GLC (6 h): 194.4 mg/dL
IP (6 h): 9.5 mg/dL
K (6 h): 4.7 meq/L
LDH (6 h): 81.6 IU/L
Na (6 h): 138 meq/L
PL (6 h): 130.6 mg/dL
RALB (6 h): 3.6 g/dL
TBIL (6 h): 0.5 mg/dL
TC (6 h): 80 mg/dL
TG (6 h): 29 mg/dL
TP (6 h): 5.5 g/dL
gamma-GTP (6 h): 2 IU/L
